According to PMC12481576, “Barbituric Acid Derivatives as Covalent Inhibitors of Leishmania braziliensis Dihydroorotate Dehydrogenase” (Journal of Medicinal Chemistry, 2025):
Read-outs that look alike come from different tables or passages of the source.

What was measured:
[1] = tested on: Leishmania braziliensis promastigotes; experiment: Leishmanicidal activity, promastigote growth (SYBR Green, 72 h); assay type: cell-based, Leishmania (V.) braziliensis (MHOM/BR/1975/M2904); settings: Leishmania braziliensis, L. braziliensis promastigotes, max 200 μM
Protocol: The cultures were adjusted to 4 × 10^6 parasites per mL, and 50 μL of each culture was added on a test plate with 384 wells (Corning, #CLS3658), along with the controls and compounds to be tested. Previously diluted compounds in DMSO were added to plates in decreasing concentrations, with a maximum concentration of 200 μM. Parasites were exposed to a final concentration of DMSO in various dilutes (final = 0.5%), and the culture medium was used as the control for the experiment. […] After adding the lysis buffer, the plates were incubated in the dark for 2 h with gentle shaking. The readings were done using a SpectraMax M3 reader (excitation at 485 nm and emission at 535 nm).

[2] = target: T1, LbDHODH (Leishmania braziliensis, UniProt E9AI53); experiment: biochemical; settings: for IC50: LbDHODH; for inhibition at 100 µM: read-out: enzyme inhibition
T1 sequence (E9AI53 entry or part of it): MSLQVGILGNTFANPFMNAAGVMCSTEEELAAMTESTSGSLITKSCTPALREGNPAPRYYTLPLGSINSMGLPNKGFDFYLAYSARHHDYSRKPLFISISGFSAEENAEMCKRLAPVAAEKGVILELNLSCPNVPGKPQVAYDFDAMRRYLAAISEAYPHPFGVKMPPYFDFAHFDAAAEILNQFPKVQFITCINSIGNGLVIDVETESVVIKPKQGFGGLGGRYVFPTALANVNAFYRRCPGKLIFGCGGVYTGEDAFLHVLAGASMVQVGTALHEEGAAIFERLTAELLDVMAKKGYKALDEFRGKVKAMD
Protocol: To assess the ability of compounds 2a–2i to inhibit LbDHODH via covalent bond formation with Cys^131, we initially screened them at a concentration of 100 μM under two conditions: with and without a 4-h preincubation with the enzyme.
The experiments were performed in a 96-well microplate reader (SpectraMax Plus 384, Molecular Devices, USA), containing the […] of the buffer 60 mM DCIP, 50 mM Tris pH 8.15, 150 mM KCl, 0.1% Triton X-100, 50 μM DHO and 10 μM of LbDHODH at 165 nM. The reaction was monitored every 3 s at 610 nm over a period of 60 s, in triplicate, for the control and each concentration of the inhibitor. All assays were performed without incubation (0h) and with 4-h preincubation of the inhibitor with LbDHODH, using 5% DMSO (v/v) as control. […]. […] The resulting kobs values were plotted as a function of inhibitor concentration, and the data in the initial linear region was fit to determine the slope, which is kinact/KI. All regressions were performed with GraphPad Prism 9.

[3] = Cell viability / cytotoxicity assay (PrestoBlue, 72 h); assay type: cell-based; settings: human; THP-1 cell line, 72 h, max 200 μM; read-out: CC50
Protocol: THP-1 cells (American Type Cell Collection, #TIB-202) were acquired in 2019 and stored frozen in liquid nitrogen. The cells were then maintained in RPMI 1640 (Thermo Fisher Scientific, #S31800–022) at 37 °C in a 5% CO2 atmosphere and routinely tested for Mycoplasma contamination by PCR using the primers 5′-[…] and 5′-[…]. To test the toxicity of compounds, 5000 cells were added to 96-well plates with a final volume of 80 μL centrifuged at 400g for 2 min and incubated with 150 ng/mL of phorbol myristate acetate (Merck, #P8139) for 48 h. The medium was replaced, and after 24 h, the compounds were added and tested at decreasing concentrations starting from 200 μM (10 μL/well). After 72 h of incubation, 10 μL of PrestoBlue Cell Viability Reagent (Thermo Fisher Scientific, #A13262) was added per well. After adding the reagent, the cells were incubated for 2 h at 37 °C in a 5% CO2 atmosphere, and fluorescence readings were performed using the SpectraMax M3 reader (excitation at 560 nm and emission at 590 nm).

[4] = target: T2, HsDHODH (Homo sapiens, UniProt Q02127); experiment: Selectivity assay: HsDHODH single-dose inhibition (DCIP reduction); assay type: biochemical
T2 construct: made in house
T2 sequence (Q02127 whole entry): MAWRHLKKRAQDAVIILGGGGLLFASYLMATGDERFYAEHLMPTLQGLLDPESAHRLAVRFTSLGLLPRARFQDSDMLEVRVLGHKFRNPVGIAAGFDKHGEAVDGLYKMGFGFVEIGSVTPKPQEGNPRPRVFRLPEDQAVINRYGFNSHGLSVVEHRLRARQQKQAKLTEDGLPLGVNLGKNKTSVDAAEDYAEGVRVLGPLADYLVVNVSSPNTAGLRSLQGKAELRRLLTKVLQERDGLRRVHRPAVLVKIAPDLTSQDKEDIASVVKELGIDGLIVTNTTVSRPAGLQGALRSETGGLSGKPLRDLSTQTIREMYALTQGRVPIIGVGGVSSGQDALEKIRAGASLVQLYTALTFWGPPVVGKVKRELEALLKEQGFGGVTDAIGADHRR
Protocol: […]. This finding highlights the potential of barbituric acid derivatives as selective inhibitors of LbDHODH.
Human DHODH expression and purification were conducted following a protocol previously established in our laboratory. The purification was carried out by affinity chromatography on a Ni-NTA Agarose column (Qiagen[…] Cat. No. 30210). […] The reaction was performed in triplicate, initiated by adding 195 μL of reaction buffer to 5 μL of HsDHODH protein solution for a final concentration of 20 nM enzyme. As a blank, 195 μL of reaction buffer was added to 5 μL of Buffer A. The reaction was monitored at 610 nm every 3 s over 60 s. As a control, 5 μL of enzyme was added to 195 μL of reaction medium without compound. Enzymatic velocity was calculated, and the percentage of relative enzymatic activity was determined relative to the control.

[5] = target: T1, LbDHODH; experiment: Kinact/KI determination from LbDHODH progress curves (kobs vs inhibitor concentration); assay type: biochemical
From the text: The Kinact/Ki ratio is a key parameter for evaluating the potency of covalent inhibitors, as it quantitatively measures both their reactivity and affinity for the target enzyme. This parameter integrates two crucial aspects: KI, which reflects the inhibitor’s binding affinity, and Kinact, which describes the rate at which the covalent bond is formed. […] Therefore, this ratio is essential for ranking covalent inhibitors, optimizing their potency, and guiding structure-based drug design.
The experiments were performed in a 96-well microplate reader (SpectraMax Plus 384, Molecular Devices, USA), containing the […] of the buffer 60 mM DCIP, 50 mM Tris pH 8.15, 150 mM KCl, 0.1% Triton X-100, 50 μM DHO and 10 μM of LbDHODH at 165 nM. The reaction was monitored every 3 s at 610 nm over a period of 60 s, in triplicate, for the control and each concentration of the inhibitor. All assays were performed without incubation (0h) and with 4-h preincubation of the inhibitor with LbDHODH, using 5% DMSO (v/v) as control. […] To determine the IC50 values, the activity percentage data were fitted as a function of the concentration logarithm by nonlinear regression analysis (variable hillslope) using Prism 9.0 software (GraphPad Software, USA). […] The resulting kobs values were plotted as a function of inhibitor concentration, and the data in the initial linear region was fit to determine the slope, which is kinact/KI. All regressions were performed with GraphPad Prism 9.

[6] = 0 h, pH 8.15, read-out: LbDHODH Activity±SD (%)
[7] = 4 h, pH 8.15, read-out: LbDHODH Activity±SD (%)
[8] = IC50 0 h, without preincubation
[9] = read-out: Single dose (0h) % activity
[10] = read-out: Single dose (4h) % activity

## O=C1NC(=O)C(=Cc2cccc(O)c2)C(=O)N1 [2g, 5-(3-Hydroxybenzylidene)pyrimidine-2,4,6(1H,3H,5H)-trione]
[1]
  EC50: > 200 µM
[2]; [6]
  activity at 0.78125 µM: 90 ± 9%
  activity at 1.5625 µM: 106 ± 12%
  activity at 3.125 µM: 78 ± 13%
  activity at 6.25 µM: 106 ± 15%
  activity at 12.5 µM: 101 ± 10%
  activity at 25 µM: 82 ± 17%
  activity at 50 µM: 63 ± 8%
  activity at 100 µM: 45 ± 5%
  activity at 200 µM: 29 ± 3%
  activity at 400 µM: 21 ± 2%
[2]; [7]
  activity at 0.78125 µM: 88 ± 8%
  activity at 1.5625 µM: 72 ± 9%
  activity at 3.125 µM: 77 ± 13%
  activity at 6.25 µM: 75 ± 10%
  activity at 12.5 µM: 58 ± 5%
  activity at 25 µM: 36 ± 4%
  activity at 50 µM: 23 ± 3%
  activity at 100 µM: 12.1 ± 2%
  activity at 200 µM: 7.1 ± 2%
  activity at 400 µM: 5.4 ± 3%
[2]; [8]
  IC50: 90 ± 10 µM
[2]; IC50 4 h, 4-h preincubation
  IC50: 13 ± 1 µM
[2]; [9]
  activity at 100 µM: 22 ± 4%
[2]; [10]
  activity at 100 µM: 8 ± 2%
[2]
  inhibition at 100 µM: 90 to 93%
[3]
  CC50 at 72 h: 76 ± 12 µM
[4]; [9]
  activity at 100 µM: 101 ± 11%
[4]; [10]
  activity at 100 µM: 96 ± 9%
[5]; inhibitor 0.390625 µM
  Kobs: 0.003649 ± 0.003 s⁻¹
[5]; inhibitor 0.78125 µM
  Kobs: 0.003674 ± 0.003 s⁻¹
[5]; inhibitor 1.5625 µM
  Kobs: 0.00383 ± 0.002 s⁻¹
[5]; inhibitor 3.125 µM
  Kobs: 0.003621 ± 0.002 s⁻¹
[5]; inhibitor 6.25 µM
  Kobs: 0.003878 ± 0.002 s⁻¹
[5]; inhibitor 12.5 µM
  Kobs: 0.004049 ± 0.002 s⁻¹
[5]; inhibitor 25 µM
  Kobs: 0.004549 ± 0.002 s⁻¹
[5]; inhibitor 50 µM
  Kobs: 0.005211 ± 0.002 s⁻¹
[5]; inhibitor 100 µM
  Kobs: 0.007035 ± 0.001 s⁻¹
[5]; inhibitor 200 µM
  Kobs: 0.01421 ± 0.003 s⁻¹
[5]; inhibitor 400 µM
  Kobs: 0.01927 ± 0.006 s⁻¹

## O=C1NC(=O)C(=Cc2ccc(C(=O)O)cc2)C(=O)N1 [2b, 4-((2,4,6-Trioxotetrahydropyrimidin-5(2H)-ylidene)methyl)benzoic Acid]
[1]
  EC50: > 200 µM
[2]; [6]
  activity at 0.195312 µM: 98 ± 18%
  activity at 0.390625 µM: 96 ± 9%
  activity at 0.78125 µM: 100 ± 8%
  activity at 1.5625 µM: 96 ± 7%
  activity at 3.125 µM: 97 ± 7%
  activity at 6.25 µM: 94 ± 18%
  activity at 12.5 µM: 97 ± 10%
  activity at 25 µM: 72 ± 10%
  activity at 50 µM: 72 ± 6%
  activity at 100 µM: 65 ± 5%
  activity at 200 µM: 60 ± 22%
  activity at 400 µM: 86 ± 18%
[2]; [7]
  activity at 0.195312 µM: 94 ± 11%
  activity at 0.390625 µM: 99 ± 11%
  activity at 0.78125 µM: 91 ± 20%
  activity at 1.5625 µM: 80 ± 8%
  activity at 3.125 µM: 90 ± 6%
  activity at 6.25 µM: 83 ± 13%
  activity at 12.5 µM: 65 ± 4%
  activity at 25 µM: 66 ± 4%
  activity at 50 µM: 29 ± 5%
  activity at 100 µM: 15 ± 1%
  activity at 200 µM: 13 ± 6%
  activity at 400 µM: 7 ± 2%
[2]; [8]
  IC50: > 100 µM
[2]; IC50 4 h, 4-h preincubation
  IC50: 22 ± 1 µM
[2]; [9]
  activity at 100 µM: 70 ± 10%
[2]; [10]
  activity at 100 µM: 10 ± 2%
[2]
  inhibition at 100 µM: 90 to 93%
[3]
  CC50 at 72 h: > 200 µM
[4]; [9]
  activity at 100 µM: 105 ± 12%
[4]; [10]
  activity at 100 µM: 99 ± 10%

## O=C1NC(=O)C(Cc2ccc(N3CCOCC3)cc2[N+](=O)[O-])C(=O)N1 [3e, 5-(4-Morpholino-2-nitrobenzyl)pyrimidine-2,4,6(1H,3H,5H)-trione]
[1]
  EC50: 23 ± 16 µM
[2]; [8]
  IC50: > 100 µM
[2]; IC50 4 h, 4-h preincubation
  IC50: > 100 µM
[2]; [9]
  activity at 100 µM: 90 ± 10%
[2]; [10]
  activity at 100 µM: 80 ± 20%
[3]
  CC50 at 72 h: > 200 µM
[4]; [9]
  activity at 100 µM: 105 ± 12%
[4]; [10]
  activity at 100 µM: 89 ± 9%

## O=C1NC(=O)C(Cc2ccccc2)C(=O)N1 [3a, 5-Benzylpyrimidine-2,4,6(1H,3H,5H)-trione]
[1]
  EC50: > 200 µM
[2]; [8]
  IC50: > 100 µM
[2]; IC50 4 h, 4-h preincubation
  IC50: > 100 µM
[2]; [9]
  activity at 100 µM: 90 ± 10%
[2]; [10]
  activity at 100 µM: 70 ± 8%
[3]
  CC50 at 72 h: > 200 µM
[4]; [9]
  activity at 100 µM: 109 ± 12%
[4]; [10]
  activity at 100 µM: 97 ± 9%

## O=C1NC(=O)C(Cc2ccc(-c3ccccc3F)[nH]2)C(=O)N1 [3h, 5-((5-(2-Fluorophenyl)-1H-pyrrol-2-yl)methyl)pyrimidine-2,4,6(1H,3H,5H)-trione]
[1]
  EC50: > 200 µM
[2]; [8]
  IC50: > 100 µM
[2]; IC50 4 h, 4-h preincubation
  IC50: > 100 µM
[2]; [9]
  activity at 100 µM: 80 ± 10%
[2]; [10]
  activity at 100 µM: 80 ± 20%
[3]
  CC50 at 72 h: > 200 µM
[4]; [9]
  activity at 100 µM: 89 ± 10%
[4]; [10]
  activity at 100 µM: 91 ± 9%

## O=C1NC(=O)C(Cc2ccc(C(=O)O)cc2)C(=O)N1 [3b, 4-((2,4,6-Trioxohexahydropyrimidin-5-yl)methyl)benzoic Acid]
[1]
  EC50: > 200 µM
[2]; [8]
  IC50: > 100 µM
[2]; IC50 4 h, 4-h preincubation
  IC50: > 100 µM
[2]; [9]
  activity at 100 µM: 109 ± 3%
[2]; [10]
  activity at 100 µM: 69 ± 2%
[3]
  CC50 at 72 h: > 200 µM
[4]; [9]
  activity at 100 µM: 92 ± 10%
[4]; [10]
  activity at 100 µM: 83 ± 8%

## O=C1NC(=O)C(Cc2cccc(O)c2)C(=O)N1 [3g, 5-(3-Hydroxybenzyl)pyrimidine-2,4,6(1H,3H,5H)-trione]
[1]
  EC50: > 200 µM
[2]; LbDHODH remaining activity, compound 100 μM, 4-h preincubation, read-out: single dose (4 h) % activity
  activity at 100 µM: 36 ± 3%
[2]; LbDHODH remaining activity, compound 100 μM, without preincubation, read-out: single dose (0 h) % activity
  activity at 100 µM: 93 ± 5%
[3]
  CC50 at 72 h: > 200 µM
[4]; [9]
  activity at 100 µM: 87 ± 10%
[4]; [10]
  activity at 100 µM: 86 ± 10%
